Source: PubChem BioAssay (NCI)
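The compound was tested at five concentrations on cells cultured in 96-well plates, with a 48-hour exposure period. The concentration for full growth arrest is given as TGI.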 Where a SMILES comes first, the peptide text is derived from it. [ ]: non-standard residue; d: D form. The star is where a group is joined. Iva = CC[C](C)(N)C(=O)O; Boc = CC(C)(C)OC(=O)*; X52 = C1CCC(=NO*)C1

Tests used:
Test in all cases: growth of human tumour cells (NCI), 48 h
[1] = tested on: SNB-75 CNS
[2] = tested on: HCC-2998 colon
[3] = tested on: T-47D breast
[4] = tested on: EKVX NSCLC
[5] = tested on: NCI-H522 lung
[6] = tested on: MDA-MB-435
[7] = tested on: HS 578T breast
[8] = tested on: HL-60(TB) leukemia
[9] = tested on: K-562 leukemia
[10] = tested on: HCT-15 colon
[11] = tested on: TK-10 renal
[12] = tested on: DU-145 prostate
[13] = tested on: LOX IMVI melanoma
[14] = tested on: MDA-N
[15] = tested on: OVCAR-3 ovarian
[16] = tested on: A549 NSCLC
[17] = tested on: MDA-MB-231 breast
[18] = tested on: MOLT-4 leukemia
[19] = tested on: DMS 273 small cell lung
[20] = tested on: OVCAR-8 ovarian

| Structure (SMILES) | TGI [1] | TGI [2] | TGI [3] | TGI [4] | TGI [5] | TGI [6] | TGI [7] | TGI [8] | TGI [9] | TGI [10] | TGI [11] | TGI [12] | TGI [13] | TGI [14] | TGI [15] | TGI [16] | TGI [17] | TGI [18] | TGI [19] | TGI [20] |
| --- | --- | --- | --- | --- | --- | --- | --- | --- | --- | --- | --- | --- | --- | --- | --- | --- | --- | --- | --- | --- |
| COc1ccc(-c2c3c(cc4cc5c(cc24)OCO5)C(=O)OC3)cc1OC | 44.7 µM | 13.9 µM | 3.46 µM | > 75.6 µM | 5.95 µM | 11.5 µM | 68.8 µM | > 31.8 µM | > 36.8 µM | 18.3 µM | > 100 µM | > 100 µM | 0.0663 µM | 13.3 µM | 18.8 µM | > 100 µM | 25.4 µM | 20.4 µM |  |  |
| CC(C)OP(=O)(OC(C)C)c1nc(-c2ccccc2)n(-c2ccc([N+](=O)[O-])cc2)n1 | > 100 µM | > 100 µM |  | > 100 µM | > 100 µM |  |  | > 100 µM | > 100 µM | > 100 µM | > 100 µM |  |  |  | > 100 µM | > 100 µM |  | > 100 µM | > 100 µM | > 100 µM |
| O=[N+]([O-])c1ccc(N=Nc2c(O)ccc3ccccc23)c([N+](=O)[O-])c1 | > 100 µM | > 100 µM | > 100 µM | > 100 µM | > 100 µM | > 100 µM | > 100 µM |  | > 71.4 µM | > 100 µM | > 100 µM | > 100 µM | > 100 µM | > 100 µM | > 100 µM | > 100 µM | > 100 µM | > 100 µM |  | > 100 µM |
| CCCC[C@H]1[C@@H](OCOc2ccccc2)COC(=O)N1[C@H](C)c1ccccc1 | 26.9 µM | 35.8 µM | > 40.4 µM | 85.2 µM | 29.2 µM | 38.5 µM | 52.8 µM | 59.4 µM | > 100 µM | 44.6 µM | 39 µM | 53.3 µM | 70.7 µM | 32.4 µM | 27.8 µM | 28.4 µM | 37.3 µM | > 60.4 µM |  | > 100 µM |
| CCCCCCCCCCCCCCCCCCN(C)C(COC)COP(=O)([O-])OCC[N+](C)(C)C (configuration not stated) | 8.3 µM | 3.46 µM | 34.1 µM | 34.2 µM | 10.7 µM | 33.9 µM | 22.5 µM | 4.34 µM | 31.3 µM |  | 4.43 µM | 24.5 µM | 18.8 µM | 31.1 µM | 22.4 µM | 21.1 µM | 19.6 µM | 4.28 µM | 2.92 µM | 26.3 µM |
| CCC(C)(NC(=O)C(C)NC(=O)OC(C)(C)C)C(=O)NC(C)C(=O)NC(C)(CC)C(=O)ON=C1CCCC1 (configuration not stated) (Boc-A[Iva]A[Iva]-X52; configuration not given here) | > 100 µM | > 100 µM | > 100 µM |  | > 100 µM | > 100 µM | > 100 µM | > 100 µM | > 100 µM | > 100 µM |  | > 100 µM |  | > 100 µM | > 100 µM |  | > 100 µM | > 100 µM |  | > 100 µM |
| O=C(Nc1ccccc1)c1cc2ccccc2c(N=Nc2ccc([N+](=O)[O-])cc2)c1O | > 100 µM |  | > 100 µM | > 100 µM | > 100 µM | > 100 µM | > 100 µM | > 100 µM | > 100 µM | > 100 µM | > 100 µM | > 100 µM | > 100 µM |  | > 100 µM | > 100 µM | > 100 µM | > 100 µM |  | > 100 µM |
| O=P1(Oc2ccc(Cl)cc2Cl)Oc2ccc3ccccc3c2-c2c(ccc3ccccc23)O1 | 85 µM | 61.4 µM |  | > 67.3 µM | 50.7 µM |  |  | 53.8 µM | > 100 µM | > 77.1 µM |  |  | 53.9 µM |  | 49.5 µM | > 100 µM |  | 55.6 µM | > 93.2 µM | > 100 µM |
| C1CSCCSCCSCCSC1 | > 100 µM | > 100 µM | > 100 µM | > 100 µM | > 100 µM | > 100 µM | > 100 µM |  |  | > 100 µM | > 100 µM | > 100 µM | > 100 µM | > 100 µM | > 100 µM | > 100 µM | > 100 µM | > 100 µM |  | > 100 µM |
| COc1ccc2nccc(SCC(=O)O)c2c1 |  |  | > 100 µM | > 100 µM | > 100 µM | > 100 µM | > 100 µM | > 100 µM | > 100 µM | > 100 µM | > 100 µM | > 100 µM | > 100 µM | > 100 µM | > 100 µM | > 100 µM | > 100 µM | > 100 µM |  | > 100 µM |
| COc1ccc(C2SCC(=O)N2NC(=O)c2ccncc2)cc1F (configuration not stated) | > 100 µM | > 100 µM |  |  | > 100 µM |  |  | > 100 µM |  | > 100 µM | > 100 µM |  | > 100 µM |  |  | > 100 µM |  |  | > 100 µM |  |
| COc1ccc2cc3[nH]c(=O)cc(O)c3cc2c1OC | > 100 µM | > 100 µM |  | > 100 µM |  |  |  | > 100 µM | > 100 µM | > 100 µM | > 100 µM |  | > 100 µM |  | > 100 µM | > 100 µM |  | > 100 µM |  | > 100 µM |
